Test results as given in patent US20260042764A1, “COMPOSITIONS AND METHODS FOR INHIBITION OF KRAS” (TheRas, Inc., priority 2022, published 2026).

Key:
RKN cells (KRAS G12V) [1] = experiment: Cell-based pERK HTRF assay in RKN cells (Biological Example 5)
Outline: (§1)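 To gauge disruption of KRAS-driven signalling, pERK1/2 (Thr202/Tyr204) was quantified by time-resolved FRET in lysates of cells exposed 2 h at 37° C to a 9-point dose series. Signal ratio 665/620 nm was converted to % pERK for four-parameter EC50 fitting.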

AsPC-1 cells (KRAS G12D) [2] = experiment: Cell-based pERK HTRF assay in AsPC-1 cells (Biological Example 5); details: Homo sapiens, ASPC1, AsPC-1 (KRAS G12D) cells
Outline: as §1

AsPC-1 cells (KRAS G12D) [3] = experiment: 3D Cell viability assay in AsPC-1 cells (Biological Example 6); type: cell-based; details: Homo sapiens, ASPC1; AsPC-1 (KRAS G12D) spheroids, 72 hours
Outline: (§2)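 Tumour spheroids, grown 48 h from 1000 seeded cells in ultra-low attachment wells, receive compound at nine three-fold-spaced concentrations (final DMSO 0.25%) for 72 h at 37 °C, 5% CO2. Viability is measured by luminescence after CTG 3D lysis.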

SW1900 cells (KRAS G12D) = experiment: 3D Cell viability assay in SW1900 cells (Biological Example 6); type: cell-based; details: Homo sapiens; SW1990 (text: SW1900, KRAS G12D) spheroids, 72 hours
Outline: as §2

[4] = system: MKN1 cells (KRAS amplification); experiment: 3D Cell viability assay in MKN1 cells (Biological Example 6); type: cell-based; details: Homo sapiens, MKN-1; MKN (MKN1, KRAS amplification) spheroids, 72 hours
Protocol: (§3) Biological Example 6: 3D Cell viability assay in AsPC-1, SW1900, HPAC, Capan-2, RKN, H358, HCT116, KP-2, H1573, A549, MKN1, and HT1080 cells
(§4) The inhibition of cellular viability as a result of test compound treatment in a spheroid assay was measured using the CellTiter-Glow 3D Cell Viability Assay (Promega).
(§5) On Day 1, 1000 cells per well were seeded in 150 μL of complete growth media supplemented with 10% fetal bovine serum (FBS) and incubated at 37° C., in the presence of 5% CO2 in 96-well ultra-low attachment microplates (Corning) for 48 hours undisturbed to allow spheroids to form.
(§6) Following spheroid formation, cells were treated with compounds diluted in DMSO at 0.25% final DMSO concentration. Compounds were dosed in a 9-point concentration curve with three-fold dilution between concentrations. Cells were incubated in the presence of compound for 72 hours at 37° C., in the presence of 5% CO2.
(§7) Following this incubation period, the kit-provided CTG reagent was allowed to equilibrate for 30 minutes at room temperature, 150 μL of equilibrated CTG reagent was added to each well, and the plate was sealed before shaking at 250 rpm for 10 minutes at room temperature to lyse the cells, 150 μL of lysate per well was transferred to a 96-well plate and luminescence was read on a CLARIOstar plate reader.
(§8) Data was imported into the Prism software package (Graphpad) and EC50 values were calculated using the log (inhibitor) vs, response—variable slope (Four parameters) model.

HPAC cells (KRAS G12D) = experiment: Cell-based pERK HTRF assay in HPAC cells (Biological Example 5); details: Homo sapiens, HPAC
Outline: as §1

[5] = system: Capan-2 cells (KRAS G12V); experiment: Cell-based pERK HTRF assay in Capan-2 cells (Biological Example 5); details: Homo sapiens, Capan-2, Capan-2 (KRAS G12V) cells
Outline: as §1

H358 cells (KRAS G12C) = experiment: 3D Cell viability assay in H358 cells (Biological Example 6); type: cell-based; details: Homo sapiens, NCI-H358; H358 (KRAS G12C) spheroids, 72 hours
Outline: as §2

RKN cells (KRAS G12V) [6] = experiment: 3D Cell viability assay in RKN cells (Biological Example 6); type: cell-based; details: RKN (KRAS G12V) spheroids, 72 hours
Outline: as §2

HT1080 cells (NRAS) [7] = experiment: Cell-based pERK HTRF assay in HT1080 cells (Biological Example 5); details: Homo sapiens, HT-1080
Outline: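 Overnight-plated cells (2.5×10^4/well, 10% FBS); 2 h compound, 9-pt 3-fold curve, 0.25% DMSO, 37° C; lysis 30 min RT; Eu cryptate/D2 anti-pERK (T202/Y204) detection 24 h, 4° C; 665/620 ratio → % pERK → 4-PL EC50.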

HT1080 cells (NRAS) [8] = experiment: 3D Cell viability assay in HT1080 cells (Biological Example 6); type: cell-based; details: Homo sapiens, HT-1080; HT1080 (NRAS) spheroids, 72 hours
Protocol: as §3, §4, §5, §6, §7, §8

HCT116 cells (KRAS G13D) = experiment: 3D Cell viability assay in HCT116 cells (Biological Example 6); type: cell-based; details: Homo sapiens, HCT-116; HCT116 (KRAS G13D) spheroids, 72 hours
Outline: as §2

Structure (SMILES)	IC50 (RKN cells (KRAS G12V) [1])	IC50 (AsPC-1 cells (KRAS G12D) [2])	IC50 (AsPC-1 cells (KRAS G12D) [3])	IC50 (SW1900 cells (KRAS G12D))	IC50 [4]	IC50 (HPAC cells (KRAS G12D))	IC50 [5]	IC50 (H358 cells (KRAS G12C))	IC50 (RKN cells (KRAS G12V) [6])	IC50 (HT1080 cells (NRAS) [7])	IC50 (HT1080 cells (NRAS) [8])	IC50 (HCT116 cells (KRAS G13D))
CCN(c1nc(OC[C@@]23CCCN2C[C@H](F)C3)nc2c(F)c(-c3ccc(F)c4sc(N)c(C#N)c34)c(C(F)(F)F)cc12)[C@H]1C[C@H]2CN(C)C(=O)N2C1 (atropisomer, axis not shown; (aS)) [Compound 543, 2-amino-4-((S)-4-(ethyl((6S,7aS)-2-methyl-3-oxohexahydro-1H-pyrrolo[1,2-c]imidazol-6-yl)amino)-8-fluoro-2-(((2R,7aS)-2-fluorotetrahydro-1H-pyrrolizin-7a(5H)-yl)methoxy)-6-(trifluoromethyl)quinazolin-7-yl)-7-fluorobenzo[b]thiophene-3-carbonitrile]	≤ 100 nM	≤ 100 nM	≤ 100 nM	≤ 100 nM	≤ 100 nM	≤ 100 nM	≤ 100 nM	≤ 100 nM	≤ 100 nM			
CCOC(=O)N1CC[C@H](N(CC)c2nc(OC[C@@]34CCCN3C[C@H](F)C4)nc3c(F)c(-c4ccc(F)c5sc(N)c(C#N)c45)c(C(F)(F)F)cc23)C1 [Compound 467]		100 to 1000 nM	≤ 100 nM	≤ 100 nM	≤ 100 nM	100 to 1000 nM	≤ 100 nM	≤ 100 nM		> 1000 nM	> 1000 nM	
CCN(c1nc(OC[C@@]23CCCN2C[C@H](F)C3)nc2c(F)c(-c3ccc(F)c4sc(N)c(C#N)c34)c(C(F)(F)F)cc12)[C@H]1C[C@H](C)N(C(=O)C2CC2)C1 [Compound 470]		≤ 100 nM	≤ 100 nM	≤ 100 nM	≤ 100 nM	100 to 1000 nM	≤ 100 nM	≤ 100 nM		> 1000 nM	> 1000 nM	
CCN(c1nc(OC[C@@]23CCCN2C[C@H](F)C3)nc2c(F)c(-c3ccc(F)c4sc(N)c(C#N)c34)c(C(F)(F)F)cc12)[C@H]1CCS(=O)(=O)C1 (atropisomer, axis not shown) [Compound 492]		≤ 100 nM	≤ 100 nM	≤ 100 nM	≤ 100 nM	≤ 100 nM	≤ 100 nM	≤ 100 nM		> 1000 nM	> 1000 nM	100 to 1000 nM
CCN(c1nc(OC[C@@]23CCCN2C[C@H](F)C3)nc2c(F)c(-c3ccc(F)c4sc(N)c(C#N)c34)c(C(F)(F)F)cc12)[C@H]1C[C@H]2COC(=O)N2C1 (atropisomer, axis not shown; (aS)) [Compound 518, 2-amino-4-((S)-4-(ethyl((6S,7aS)-3-oxotetrahydro-1H,3H-pyrrolo[1,2-c]oxazol-6-yl)amino)-8-fluoro-2-(((2R,7aS)-2-fluorotetrahydro-1H-pyrrolizin-7a(5H)-yl)methoxy)-6-(trifluoromethyl)quinazolin-7-yl)-7-fluorobenzo[b]thiophene-3-carbonitrile]	≤ 100 nM	≤ 100 nM	≤ 100 nM	≤ 100 nM	≤ 100 nM	100 to 1000 nM	≤ 100 nM	≤ 100 nM	≤ 100 nM			
